Source: patent US20220183976A1, “COMPOSITIONS OF DISPERSED PHASE FOR PREPARATION OF APIXABAN-LOADED MICROSPHERES AND BIOCOMPATIBLE POLYMER-BASED APIXABAN-LOADED MICROSPHERES PREPARED THEREFROM” (HLB PHARMACEUTICAL CO., LTD., priority 2019, published 2022)

Experiment: Dissolution of Apixaban in non-halogen and halogen organic solvents
Type: physicochemical
Experimental: 25 mg of Apixaban was added to 1 mL of each of ethyl acetate, ethyl formate, methyl propionate, and ethanol and stirred. As a result, it was confirmed that Apixaban was not dissolved in non-halogen organic solvents (FIG. 1).
25 mg of Apixaban was dissolved in 1 mL of dichloromethane, and the mixture was photographed after 12 hours.

COc1ccc(-n2nc(C(N)=O)c3c2C(=O)N(c2ccc(N4CCCCC4=O)cc2)CC3)cc1 [Apixaban]
Dissolution of Apixaban in halogen organic solvent (25 mg in 1 mL of dichloromethane, photographed after 12 hours): completely dissolved in the beginning, but after a certain time, crystals were formed
Dissolution of Apixaban in non-halogen organic solvents (25 mg in 1 mL of each of ethyl acetate, ethyl formate, methyl propionate, ethanol, stirred): not dissolved
Apixaban concentration in dichloromethane at which recrystallization occurs (dichloromethane): ≥ 10 mg/mL
